The record followed here is patent publication US8148404B2, “Modulators of CB1 receptors” (7TM Pharma A/S, priority 2006, dated 2012).

A value given as a limit tells only on which side of the number the result lay.

One may read the IC50 as the point on the concentration scale where inhibition reaches its midpoint.

T1 sequence (P21554 whole entry): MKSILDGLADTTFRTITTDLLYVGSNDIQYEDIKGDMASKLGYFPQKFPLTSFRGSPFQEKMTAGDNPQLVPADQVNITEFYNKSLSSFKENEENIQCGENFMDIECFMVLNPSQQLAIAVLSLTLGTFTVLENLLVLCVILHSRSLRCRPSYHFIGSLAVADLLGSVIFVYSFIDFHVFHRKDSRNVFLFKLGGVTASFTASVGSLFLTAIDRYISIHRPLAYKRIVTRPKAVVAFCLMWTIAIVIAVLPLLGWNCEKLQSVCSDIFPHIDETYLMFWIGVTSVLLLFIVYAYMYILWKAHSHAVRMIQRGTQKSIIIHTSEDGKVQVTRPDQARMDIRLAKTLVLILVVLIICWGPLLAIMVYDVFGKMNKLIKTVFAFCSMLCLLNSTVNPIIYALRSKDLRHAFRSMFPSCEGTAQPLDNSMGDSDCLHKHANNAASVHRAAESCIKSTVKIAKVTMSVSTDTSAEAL

The assay addresses T1, human CB1 receptor (Homo sapiens, UniProt P21554).
T1 construct: expressed in transfected cells; membranes used
Briefly: Cannabinoid Receptor-1 functional assay: inhibition of CP55940-induced [35S]GTPγS binding to membranes of CHO-K1 cells expressing human CB1. The assay is classed as biochemical. As to conditions: 3 nM CP55940, [35S]GTPγS SPA, hCB1 membranes; read-out: IC50 value for antagonizing a CB1 receptor agonist. From the text:
Transfection and Cell Culture—The cDNA encoding the human CB1 (Cannabinoid Receptor-1) receptor (GenBank accession number NM_016083) was cloned from a human adipose tissue cDNA library and cloned into the eukaryotic expression vector pcDNA3.1 (Invitrogen).
Chinese Hamster Ovary cells (CHO-K1) stably expressing recombinant human CB1 were generated by transfecting the plasmid containing the coding sequence of the human CB1 receptor in CHO-K1 cells, using lipofectamin, according to the manufacturer instructions. Resistant clones were selected in the presence of 600 μg/ml G418 (Life technology). Stably transfected CHO-K1 cells were maintained in Ham's F-12 culture medium (Invitrogen), supplemented with 10% fetal calf serum (Invitrogen), 100 U/ml penicillin, 100 μg/ml streptomycin (Life Technology), and 600 μg/ml G418.
Functional activities of the above examples of compounds of the invention were assessed in vitro by measuring their ability to inhibit CP55940-induced [^35S]GTPγS binding to membranes prepared from CHO-K1 cells expressing the human CB1 receptor (described in Transfection and Cell Culture). CP55940 is a well known non-selective CB1 and CB2 receptor agonist (e.g Felder et al., 1995, Molecular Pharmacology, (48) 443-50). Membranes were prepared by a standard procedure. Briefly, cells were harvested using 10 mM EDTA and collected by centrifugation. Pelleted cells were homogenized in ice-cold 20 mM Hepes (pH 7.4), 10 mM EDTA and protease inhibitors (Complete protease inhibitor cocktail tablet, Roche) using an Ultra Turrax Homogenizer. The homogenate was centrifuged at 14 000 rpm for 45 min. at 4° C. The resultant pellet was resuspended in the same buffer but with only 0.1 mM EDTA and was again centrifuged at 14 000 rpm for 45 min. at 4° C. The resulting pellet (membranes) was resuspended in 20 mM Hepes (pH 7.4), 0.1 mM EDTA, 2 mM MgCl2 and protease inhibitors and protein concentration was determined by Micro BCA Protein Assay Reagent Kit (Pierce Biotechnology) according to the manufacturer instructions. The [^35S]GTPγS SPA (Scintillation Proximity Assay) binding assay was performed by incubating 5 μg/well hCB1-membranes with 1 nM [^35S]GTPγS (Perkin Elmer—NEG 030H) in the presence of 3 nM of CP55940 and various concentrations of the test compounds at room temperature for 1 hr in 96-well microtiter plates. 0.4 mg/well SPA beads (PVT-WGA; RPNQ0001 Amersham Pharmacia Biotech) were then added and the incubation continued for further 30 min. on an orbital shaker. The assay buffer contained 50 mM HEPES (pH 7.5), 50 mM NaCl, 2.5 mM MgCl2, 0.1% BSA, 1 μM GDP and 100 μg/ml Saponin. Microtiter plates were centrifuged at 1500 rpm for 5 min. and radioactivity was read immediately using a Topcounter (PerkinElmer Life Sciences). Data were analyzed and IC50 values determined by non-linear regression using the Prism software (GraphPad Software, San Diego).
(GTPγS resists hydrolysis and so accumulates on activated G proteins.)
For the compound `O=C(c1nn(-c2ccccc2Cl)c(-c2ccc(Cl)cc2)c1Cc1nn[nH]n1)N1CCC(Oc2ccc(F)c(F)c2)CC1` [[3.8], [1-(2-Chloro-phenyl)-5-(4-chloro-phenyl)-4-(2H-tetrazol-5-ylmethyl)-1H-pyrazol-3-yl]-[4-(3,4-difluorophenoxy)-piperidin-1-yl]-methanone], the IC50 is less than 0.3 µM.

As for `O=C(O)Cc1c(C(=O)N2CCC(c3ccc(F)cc3F)CC2)nn(-c2ccccc2Cl)c1-c1ccc(Cl)cc1` [[1.26], {1-(2-Chloro-phenyl)-5-(4-chloro-phenyl)-3-[4-(2,4-difluoro-phenyl)-piperidine-1-carbonyl]-1H-pyrazol-4-yl}-acetic acid], the IC50 was less than 0.3 µM.

Turning to `CC(C(=O)O)c1c(C(=O)N2CCC(c3ccccc3F)CC2)nn(-c2ccccc2Cl)c1-c1ccc(Cl)cc1` (centres unmarked) [Compound [1.52], 2-{1-(2-Chloro-phenyl)-5-(4-chloro-phenyl)-3-[4-(2-fluoro-phenyl)-piperidine-1-carbonyl]-1H-pyrazol-4-yl}-propionic acid], the IC50 is less than 0.3 µM.

On to `O=C(O)Cc1c(C(=O)N2CCC(O)(c3ccc(F)c(C(F)(F)F)c3)CC2)nn(-c2ccccc2Cl)c1-c1ccc(Cl)cc1` [[1.42], {1-(2-Chloro-phenyl)-5-(4-chloro-phenyl)-3-[4-(4-fluoro-3-trifluoromethyl-phenyl)-4-hydroxy-piperidine-1-carbonyl]-1H-pyrazol-4-yl}-acetic acid], for which the half-maximal inhibitory concentration (IC50) was less than 0.3 µM.

Regarding `O=C(c1nn(-c2ccccc2Cl)c(-c2ccc(Cl)cc2)c1Cc1nn[nH]n1)N1CCC(O)(c2ccc(F)cc2)CC1` [[3.2], [1-(2-Chloro-phenyl)-5-(4-chloro-phenyl)-4-(2H-tetrazol-5-ylmethyl)-1H-pyrazol-3-yl]-[4-(4-fluoro-phenyl)-4-hydroxy-piperidin-1-yl]-methanone], the IC50 was less than 0.3 µM.

For `O=C(O)Cc1c(C(=O)N2CCC(c3cccc(F)c3)C2)nn(-c2ccccc2Cl)c1-c1ccc(Cl)cc1` (centres unmarked) [[1.55], {1-(2-Chloro-phenyl)-5-(4-chloro-phenyl)-3-[3-(3-fluoro-phenyl)-pyrrolidine-1-carbonyl]-1H-pyrazol-4-yl}-acetic acid], the IC50 is less than 0.3 µM.

For the compound `O=C(O)Cc1c(C(=O)N2CCC(c3ccc(C(F)(F)F)cc3)C2)nn(-c2ccccc2Cl)c1-c1ccc(Cl)cc1` (centres unmarked) [[1.39], {1-(2-Chloro-phenyl)-5-(4-chloro-phenyl)-3-[3-(4-trifluoromethyl-phenyl)-pyrrolidine-1-carbonyl]-1H-pyrazol-4-yl}-acetic acid], the IC50 is less than 0.3 µM.

As to `O=C(O)Cc1c(C(=O)N2CCN(c3ncccn3)CC2)nn(-c2ccccc2Cl)c1-c1ccc(Cl)cc1` [[1.16], [5-(4-Chloro-phenyl)-1-(2-chloro-phenyl)-3-(4-pyrimidin-2-yl-piperazine-1-carbonyl)-1H-pyrazol-4-yl]-acetic acid], the IC50 was 0.3 to 3 µM.

Take `O=C(O)Cc1c(C(=O)N2CCC(c3ccc(Cl)cc3)CC2)nn(-c2ccccc2Cl)c1-c1ccc(Cl)cc1` [[1.29], {1-(2-Chloro-phenyl)-5-(4-chloro-phenyl)-3-[4-(4-chloro-phenyl)-piperidine-1-carbonyl]-1H-pyrazol-4-yl}-acetic acid]: the IC50 is less than 0.3 µM.

As to `O=C(O)Cc1c(C(=O)N2CC(Oc3ccc(F)cc3)C2)nn(-c2ccccc2Cl)c1-c1ccc(Cl)cc1` [[1.60], {1-(2-Chloro-phenyl)-5-(4-chloro-phenyl)-3-[3-(4-fluorophenoxy)-azetidine-1-carbonyl]-1H-pyrazol-4-yl}-acetic acid], the IC50 was less than 0.3 µM.

As to `O=C(O)Cc1c(C(=O)N2CCC(O)(c3ccccc3)CC2)nn(-c2ccccc2Cl)c1-c1ccc(Cl)cc1` [[1.14], [1-(2-Chloro-phenyl)-5-(4-chloro-phenyl)-3-(4-hydroxy-4-phenyl-piperidine-1-carbonyl)-1H-pyrazol-4-yl]-acetic acid], the IC50 was less than 0.3 µM.

On to `COC[C@@H]1CCCN1C(=O)c1nn(-c2ccccc2Cl)c(-c2ccc(Cl)cc2)c1CC(=O)O` [[1.41], [1-(2-Chloro-phenyl)-5-(4-chloro-phenyl)-3-((S)-2-methoxymethyl-pyrrolidine-1-carbonyl)-1H-pyrazol-4-yl]-acetic acid], for which the IC50 was 0.3 to 3 µM.

As for `Cc1ccc(C2(O)CCN(C(=O)c3nn(-c4ccccc4Cl)c(-c4ccc(Cl)cc4)c3CC(=O)O)CC2)nc1` [[1.22], [5-(4-Chloro-phenyl)-1-(2-chloro-phenyl)-3-(4′-hydroxy-5-methyl-3′,4′,5′,6′-tetrahydro-2′H-[2,4′]bipyridinyl-1′-carbonyl)-1H-pyrazol-4-yl]-acetic acid], the IC50 was 0.3 to 3 µM.

Consider `O=C(O)Cc1c(C(=O)N2CCC(c3cccc(C(=O)O)c3)CC2)nn(-c2ccccc2Cl)c1-c1ccc(Cl)cc1` [[1.30], 3-{1-[4-Carboxymethyl-1-(2-chloro-phenyl)-5-(4-chloro-phenyl)-1H-pyrazole-3-carbonyl]-piperidin-4-yl}-benzoic acid], for which the IC50 lay in the range of 3 to 10 µM.

With `O=C(O)Cc1c(C(=O)N2CCC(c3ccc(F)cc3)C2)nn(-c2ccccc2Cl)c1-c1ccc(Cl)cc1` (centres unmarked) [[1.15], {1-(2-Chloro-phenyl)-5-(4-chloro-phenyl)-3-[3-(4-fluoro-phenyl)-pyrrol-idine-1-carbonyl]-1H-pyrazol-4-yl}-acetic acid], the IC50 is less than 0.3 µM.

Turning to `Cc1noc(C2CCN(C(=O)c3nn(-c4ccccc4Cl)c(-c4ccc(Cl)cc4)c3CC(=O)O)CC2)n1` [[1.20], {1-(2-Chloro-phenyl)-5-(4-chloro-phenyl)-3-[4-(3-methyl-[1,2,4]oxadiazol-5-yl)-piperidine-1-carbonyl]-1H-pyrazol-4-yl}-acetic acid], the IC50 fell in the range of 0.3 to 3 µM.

For `COC1(c2ccc(F)cc2)CCN(C(=O)c2nn(-c3ccccc3Cl)c(-c3ccc(Cl)cc3)c2CC(=O)O)CC1` [[1.17], {5-(4-Chloro-phenyl)-1-(2-chloro-phenyl)-3-[4-(4-fluoro-phenyl)-4-methoxy-piperidine-1carbonyl]-1H-pyrazol-4-yl}-acetic acid], the IC50 is less than 0.3 µM.

Take `O=C(O)Cc1c(C(=O)N2CCCCC2)nn(-c2ccccc2Cl)c1-c1ccc(Cl)cc1` [[1.47], [1-(2-Chloro-phenyl)-5-(4-chloro-phenyl)-3-(piperidine-1-carbonyl)-1H-pyrazol-4-yl]-acetic acid]: the IC50 was in the range of 0.3 to 3 µM.

Consider `O=C(O)Cc1c(C(=O)N2CCC(CO)(c3ccccc3)CC2)nn(-c2ccccc2Cl)c1-c1ccc(Cl)cc1` [[1.50], [1-(2-Chloro-phenyl)-5-(4-chloro-phenyl)-3-(4-hydroxymethyl-4-phenyl-piperidine-1-carbonyl)-1H-pyrazol-4-yl]-acetic acid], for which the IC50 was less than 0.3 µM.

As to `O=C(O)Cc1c(C(=O)N2CCC(c3cc(Cl)cc(Cl)c3)CC2)nn(-c2ccccc2Cl)c1-c1ccc(Cl)cc1` [[1.35], {1-(2-Chloro-phenyl)-5-(4-chloro-phenyl)-3-[4-(3,5-dichloro-phenyl)-piperidine-1-carbonyl]-1H-pyrazol-4-yl}-acetic acid], the IC50 is less than 0.3 µM.

`O=C(c1nn(-c2ccccc2Cl)c(-c2ccc(Cl)cc2)c1Cc1nn[nH]n1)N1Cc2ccc(F)cc2C1` [Compound [3.1], [5-(4-Chloro-phenyl)-1-(2-chloro-phenyl)-4-(2H-tetrazol-5-ylmethyl)-1H-pyrazol-3-yl]-(5-fluoro-1,3-dihydro-isoindol-2-yl)-methanone]: the IC50 was in the range of 0.3 to 3 µM.

For `O=C(O)Cc1c(C(=O)N2CCC(OCc3ccccc3)CC2)nn(-c2ccccc2Cl)c1-c1ccc(Cl)cc1` [[1.49], [3-(4-Benzyloxy-piperidine-1-carbonyl)-1-(2-chloro-phenyl)-5-(4-chloro-phenyl)-1H-pyrazol-4-yl]-acetic acid], the IC50 is less than 0.3 µM.

Turning to `O=C(O)Cc1c(C(=O)N2CCC(Oc3ncc(F)cn3)CC2)nn(-c2ccccc2Cl)c1-c1ccc(Cl)cc1` [[1.63], {1-(2-Chloro-phenyl)-5-(4-chloro-phenyl)-3-[4-(5-fluoropyrimidin-2-oxy)-piperidine-1-carbonyl]-1H-pyrazol-4-yl}-acetic acid], the IC50 was less than 0.3 µM.
